These results are taken from ChEMBL document CHEMBL1148240, “3-hydroxy-quinazoline-2,4-dione as a useful scaffold to obtain selective Gly/NMDA and AMPA receptor antagonists” (Bioorg Med Chem Lett, 2004).

By IC50 is commonly meant the midpoint of a concentration-inhibition curve. Broadly, the Ki is a dissociation constant, usually derived from enzyme kinetics or from competition with a known ligand. Low readings indicate a stronger hold on the target, high ones a looser hold on the target. For orientation: inhibition means the relative decrease from the control value, in per cent. A lower inhibition goes with a weak effect.

Test [1] concerns the target Glutamate NMDA receptor. The experiment in a line: Inhibitory concentration of compound for depolarization induced by 5 uM NMDA in mouse cortical wedge preparation. The class given is protein-complex assay.
The target in test [2] is Glutamate receptor ionotropic, kainate. Nature of the test: Ability of compound to displace [3H]- kainate from ionotropic glutamate receptor kainate in rat cortical membranes. The class given is cell membranes, Membrane.
Test [3] concerns the target T1, Glutamate receptor ionotropic, AMPA (Rattus norvegicus, UniProt P19490+P19491+P19492+P19493). Nature of the test: Ability of compound to displace [3H]AMPA from Ionotropic glutamate receptor AMPA in rat cerebral cortex synaptic membranes. The format is cell membranes, Membrane.
In test [4] the target is T1, Glutamate receptor ionotropic, AMPA.
Description: Inhibitory concentration of compound for depolarization induced by 5 uM S-AMPA in mouse cortical wedge preparation
A short description of test [5]: Ability of compound to inhibit the binding of the channel blocking agent [3H](+)-MK-801 in rat cortical membranes. The format is cell membranes, Membrane.
The target of test [6] is Glutamate receptor ionotropic, NMDA 1 (Rattus norvegicus, UniProt P35439). Nature of the test: Ability of compound to displace [3H]glycine from N-methyl-D-aspartate glutamate receptor 1 from in cerebral cortex synaptic membranes. The class given is cell membranes.
The species named for the next test is Rattus norvegicus. Nature of the test: Ability of compound to inhibit the binding of the channel blocking agent [3H](+)-MK-801 in rat cortical membranes at 100 uM concentration. The class given is cell membranes. To be noted: Membrane.
In test [7] the target is Glutamate NMDA receptor.

In the case of `O=c1[nH]c2cc(Cl)c([N+](=O)[O-])cc2c(=O)n1O`, the IC50 is 36 µM at Glutamate NMDA receptor [1], 19.2 µM in test [2], 29 µM in test [4] and 1.7 µM in test [5]. In addition, the Ki in test [3] turned out to be 1.3 µM; in test [6], 1.1 µM.
Take `O=c1[nH]c2cc(Cl)c(-n3cnnc3)cc2c(=O)n1O`: the inhibition in the test filed under Rattus norvegicus stood at 29%. In addition, the IC50 worked out at 84 µM against Glutamate NMDA receptor [1], 7 µM in test [2] and 4.6 µM in test [4]. In addition, the inhibitory constant (Ki) was 0.25 µM in test [3] and more than 100 µM in test [6].
For the compound `O=c1[nH]c2cc(Cl)cc(Cl)c2c(=O)n1O`, the concentration for half-maximal inhibition (IC50) against Glutamate NMDA receptor [1] is 42 µM; in test [2], 52 µM; in test [4], 33 µM; in test [5], 0.75 µM. Also, the Ki stood at 9.8 µM in test [3] and 0.2 µM in test [6].
`O=C(O)c1cc(O)c2c(Cl)cc(Cl)cc2n1` came in with a Ki on Glutamate NMDA receptor [7] of 4.7 µM.
On to `Nc1cc2c(=O)n(O)c(=O)[nH]c2cc1Cl`, for which the results for the IC50 in test [2] and in test [5] were 70 µM and 89 µM, respectively. Moreover, the values for the Ki in test [3] and in test [6] were 9.7 µM and 10.6 µM, respectively.
On to `O=c1[nH]c2cc(Cl)c(Cl)cc2c(=O)n1O`, for which the IC50 amounted to 68 µM in test [2] and 0.43 µM in test [5]. Also, the results for the Ki in test [3] and in test [6] were 12.5 µM and 0.3 µM, respectively.
Taken in the same sequence, the figures for `O=c1[nH]c2cc(Cl)ccc2c(=O)n1O` were 140 µM, 4.8 µM, 11.6 µM and 0.24 µM.
For `O=c1[nH]c2cc(Cl)cc(Cl)c2c(=O)n1-c1ccccc1`, the inhibition constant (Ki) in test [6] was found to be 23 µM.
